From article PMC12102759 (Protein Science : A Publication of the Protein Society, 2025)
Where two headings read alike, the source gives them in different places.

Test system: PABPC1 PABC
Type: binding, human
Settings: DMS-BM library, bait PABPC1 PABC, row aa = residue at this position; for DMS-derived PSSM value (averaged), position K7 / DMS-derived PSSM value, position K9: K = wild type; for DMS-derived PSSM value, position L4 / DMS-derived PSSM value, position L2 / DMS-derived PSSM value (averaged), position L2: L = wild type; for DMS-derived PSSM value (averaged), position A6 / DMS-derived PSSM value, position A8: A = wild type
[1] = prey ATXN2, TLNPNAKEFNPRSF(averaged) over the two overlapping peptides
[2] = prey ATXN2, peptide KSTLNPNAKEFNPRSF, P = wild type
[3] = prey ATXN2, peptide KSTLNPNAKEFNPRSF, F = wild type
[4] = prey ATXN2, TLNPNAKEFNPRSF(averaged) over the two overlapping peptides, N = wild type
[5] = prey ATXN2, peptide TLNPNAKEFNPRSFSQ, N = wild type
[6] = prey ATXN2, peptide TLNPNAKEFNPRSFSQ, P = wild type
[7] = prey ATXN2, peptide KSTLNPNAKEFNPRSF, N = wild type
[8] = prey ATXN2, peptide TLNPNAKEFNPRSFSQ, S = wild type
[9] = prey ATXN2, TLNPNAKEFNPRSF(averaged) over the two overlapping peptides, E = wild type
[10] = prey ATXN2, peptide TLNPNAKEFNPRSFSQ, F = wild type
[11] = prey ATXN2, TLNPNAKEFNPRSF(averaged) over the two overlapping peptides, P = wild type
[12] = prey ATXN2, peptide KSTLNPNAKEFNPRSF
[13] = prey ATXN2, peptide KSTLNPNAKEFNPRSF, S = wild type
[14] = prey ATXN2, peptide TLNPNAKEFNPRSFSQ, T = wild type
[15] = prey ATXN2, TLNPNAKEFNPRSF(averaged) over the two overlapping peptides, S = wild type
[16] = prey ATXN2, peptide KSTLNPNAKEFNPRSF, R = wild type
[17] = prey ATXN2, peptide TLNPNAKEFNPRSFSQ
[18] = prey ATXN2, peptide KSTLNPNAKEFNPRSF, E = wild type

TLNPNAKEFNPRSF(averaged) K7R (TLNPNAREFNPRSF)
DMS-derived PSSM value (averaged), position K7 [1]: 0.01712

KSTLNPNAKEFNPRSF P6T (KSTLNTNAKEFNPRSF)
DMS-derived PSSM value, position P6 [2]: 0.001755

KSTLNPNAKEFNPRSF F11K (KSTLNPNAKEKNPRSF)
DMS-derived PSSM value, position F11 [3]: 0.006092

TLNPNAKEFNPRSF(averaged) N10D (TLNPNAKEFDPRSF)
DMS-derived PSSM value (averaged), position N10 [4]: 0.04905

TLNPNAKEFNPRSF(averaged) K7I (TLNPNAIEFNPRSF)
DMS-derived PSSM value (averaged), position K7 [1]: 0.2038

TLNPNAKEFNPRSFSQ N10L (TLNPNAKEFLPRSFSQ)
DMS-derived PSSM value, position N10 [5]: 0.1974

TLNPNAKEFNPRSFSQ P4W (TLNWNAKEFNPRSFSQ)
DMS-derived PSSM value, position P4 [6]: 0

KSTLNPNAKEFNPRSF N5P (KSTLPPNAKEFNPRSF)
DMS-derived PSSM value, position N5 [7]: 0

TLNPNAKEFNPRSFSQ S13E (TLNPNAKEFNPREFSQ)
DMS-derived PSSM value, position S13 [8]: 0.006231

TLNPNAKEFNPRSF(averaged) E8T (TLNPNAKTFNPRSF)
DMS-derived PSSM value (averaged), position E8 [9]: 0.1317

TLNPNAKEFNPRSFSQ S15R (TLNPNAKEFNPRSFRQ)
DMS-derived PSSM value, position S15 [8]: 0.01068

TLNPNAKEFNPRSFSQ F9E (TLNPNAKEENPRSFSQ)
DMS-derived PSSM value, position F9 [10]: 0.05407

TLNPNAKEFNPRSFSQ F9G (TLNPNAKEGNPRSFSQ)
DMS-derived PSSM value, position F9 [10]: 0

TLNPNAKEFNPRSFSQ N5H (TLNPHAKEFNPRSFSQ)
DMS-derived PSSM value, position N5 [5]: 0.04051

TLNPNAKEFNPRSF(averaged) P11W (TLNPNAKEFNWRSF)
DMS-derived PSSM value (averaged), position P11 [11]: 0.01933

KSTLNPNAKEFNPRSF N12A (KSTLNPNAKEFAPRSF)
DMS-derived PSSM value, position N12 [7]: 0.1266

KSTLNPNAKEFNPRSF L4Y (KSTYNPNAKEFNPRSF)
DMS-derived PSSM value, position L4 [12]: 0

TLNPNAKEFNPRSF(averaged) E8L (TLNPNAKLFNPRSF)
DMS-derived PSSM value (averaged), position E8 [9]: 0

KSTLNPNAKEFNPRSF S15F (KSTLNPNAKEFNPRFF)
DMS-derived PSSM value, position S15 [13]: 0.0234

TLNPNAKEFNPRSFSQ T1I (ILNPNAKEFNPRSFSQ)
DMS-derived PSSM value, position T1 [14]: 0.00436

TLNPNAKEFNPRSF(averaged) S13H (TLNPNAKEFNPRHF)
DMS-derived PSSM value (averaged), position S13 [15]: 0.06517

TLNPNAKEFNPRSFSQ F9A (TLNPNAKEANPRSFSQ)
DMS-derived PSSM value, position F9 [10]: 0

TLNPNAKEFNPRSFSQ N5A (TLNPAAKEFNPRSFSQ)
DMS-derived PSSM value, position N5 [5]: 0.004479

KSTLNPNAKEFNPRSF R14E (KSTLNPNAKEFNPESF)
DMS-derived PSSM value, position R14 [16]: 0.01157

TLNPNAKEFNPRSFSQ N5P (TLNPPAKEFNPRSFSQ)
DMS-derived PSSM value, position N5 [5]: 8.238e-5

KSTLNPNAKEFNPRSF F11P (KSTLNPNAKEPNPRSF)
DMS-derived PSSM value, position F11 [3]: 0

TLNPNAKEFNPRSF(averaged) A6Y (TLNPNYKEFNPRSF)
DMS-derived PSSM value (averaged), position A6 [1]: 0

TLNPNAKEFNPRSF(averaged) A6E (TLNPNEKEFNPRSF)
DMS-derived PSSM value (averaged), position A6 [1]: 0

TLNPNAKEFNPRSFSQ F14P (TLNPNAKEFNPRSPSQ)
DMS-derived PSSM value, position F14 [10]: 0.06984

TLNPNAKEFNPRSFSQ L2E (TENPNAKEFNPRSFSQ)
DMS-derived PSSM value, position L2 [17]: 0.08907

KSTLNPNAKEFNPRSF E10S (KSTLNPNAKSFNPRSF)
DMS-derived PSSM value, position E10 [18]: 0

TLNPNAKEFNPRSF(averaged) N3W (TLWPNAKEFNPRSF)
DMS-derived PSSM value (averaged), position N3 [4]: 0

KSTLNPNAKEFNPRSF S15Y (KSTLNPNAKEFNPRYF)
DMS-derived PSSM value, position S15 [13]: 0.02596

TLNPNAKEFNPRSFSQ E8Q (TLNPNAKQFNPRSFSQ)
DMS-derived PSSM value, position E8 (prey ATXN2, peptide TLNPNAKEFNPRSFSQ, E = wild type): 0.04954

TLNPNAKEFNPRSFSQ F14G (TLNPNAKEFNPRSGSQ)
DMS-derived PSSM value, position F14 [10]: 0.005512

TLNPNAKEFNPRSFSQ R12A (TLNPNAKEFNPASFSQ)
DMS-derived PSSM value, position R12 (prey ATXN2, peptide TLNPNAKEFNPRSFSQ, R = wild type): 0.004965

KSTLNPNAKEFNPRSF P6V (KSTLNVNAKEFNPRSF)
DMS-derived PSSM value, position P6 [2]: 0.3743

TLNPNAKEFNPRSFSQ N10Y (TLNPNAKEFYPRSFSQ)
DMS-derived PSSM value, position N10 [5]: 0.09858

TLNPNAKEFNPRSF(averaged) L2I (TINPNAKEFNPRSF)
DMS-derived PSSM value (averaged), position L2 [1]: 0.0008035

KSTLNPNAKEFNPRSF K9N (KSTLNPNANEFNPRSF)
DMS-derived PSSM value, position K9 [12]: 0.1194

TLNPNAKEFNPRSF(averaged) P4Q (TLNQNAKEFNPRSF)
DMS-derived PSSM value (averaged), position P4 [11]: 0.01774

KSTLNPNAKEFNPRSF P13Y (KSTLNPNAKEFNYRSF)
DMS-derived PSSM value, position P13 [2]: 0.004042

TLNPNAKEFNPRSFSQ S15T (TLNPNAKEFNPRSFTQ)
DMS-derived PSSM value, position S15 [8]: 0.0005737

TLNPNAKEFNPRSF(averaged) L2D (TDNPNAKEFNPRSF)
DMS-derived PSSM value (averaged), position L2 [1]: 0

TLNPNAKEFNPRSFSQ N3G (TLGPNAKEFNPRSFSQ)
DMS-derived PSSM value, position N3 [5]: 0

TLNPNAKEFNPRSF(averaged) F14A (TLNPNAKEFNPRSA)
DMS-derived PSSM value (averaged), position F14 (prey ATXN2, TLNPNAKEFNPRSF(averaged) over the two overlapping peptides, F = wild type): 0.04899

TLNPNAKEFNPRSF(averaged) L2E (TENPNAKEFNPRSF)
DMS-derived PSSM value (averaged), position L2 [1]: 0.04453

KSTLNPNAKEFNPRSF K9M (KSTLNPNAMEFNPRSF)
DMS-derived PSSM value, position K9 [12]: 0.1105

TLNPNAKEFNPRSFSQ P11T (TLNPNAKEFNTRSFSQ)
DMS-derived PSSM value, position P11 [6]: 0.2817

TLNPNAKEFNPRSFSQ P4N (TLNNNAKEFNPRSFSQ)
DMS-derived PSSM value, position P4 [6]: 0.001049

KSTLNPNAKEFNPRSF A8W (KSTLNPNWKEFNPRSF)
DMS-derived PSSM value, position A8 [12]: 0

KSTLNPNAKEFNPRSF T3I (KSILNPNAKEFNPRSF)
DMS-derived PSSM value, position T3 (prey ATXN2, peptide KSTLNPNAKEFNPRSF, T = wild type): 0.1667

TLNPNAKEFNPRSF(averaged) S13A (TLNPNAKEFNPRAF)
DMS-derived PSSM value (averaged), position S13 [15]: 0.1254

KSTLNPNAKEFNPRSF A8L (KSTLNPNLKEFNPRSF)
DMS-derived PSSM value, position A8 [12]: 0

TLNPNAKEFNPRSFSQ P4K (TLNKNAKEFNPRSFSQ)
DMS-derived PSSM value, position P4 [6]: 0

TLNPNAKEFNPRSF(averaged) K7S (TLNPNASEFNPRSF)
DMS-derived PSSM value (averaged), position K7 [1]: 0.03571

TLNPNAKEFNPRSF(averaged) T1N (NLNPNAKEFNPRSF)
DMS-derived PSSM value (averaged), position T1 (prey ATXN2, TLNPNAKEFNPRSF(averaged) over the two overlapping peptides, T = wild type): 0.01868

TLNPNAKEFNPRSFSQ L2I (TINPNAKEFNPRSFSQ)
DMS-derived PSSM value, position L2 [17]: 0.001607

KSTLNPNAKEFNPRSF R14F (KSTLNPNAKEFNPFSF)
DMS-derived PSSM value, position R14 [16]: 0.03238

KSTLNPNAKEFNPRSF L4M (KSTMNPNAKEFNPRSF)
DMS-derived PSSM value, position L4 [12]: 0.3054

TLNPNAKEFNPRSF(averaged) N3I (TLIPNAKEFNPRSF)
DMS-derived PSSM value (averaged), position N3 [4]: 0

TLNPNAKEFNPRSF(averaged) R12T (TLNPNAKEFNPTSF)
DMS-derived PSSM value (averaged), position R12 (prey ATXN2, TLNPNAKEFNPRSF(averaged) over the two overlapping peptides, R = wild type): 0.1269

TLNPNAKEFNPRSFSQ S15I (TLNPNAKEFNPRSFIQ)
DMS-derived PSSM value, position S15 [8]: 0.0111

TLNPNAKEFNPRSFSQ P11G (TLNPNAKEFNGRSFSQ)
DMS-derived PSSM value, position P11 [6]: 0.04287

KSTLNPNAKEFNPRSF E10W (KSTLNPNAKWFNPRSF)
DMS-derived PSSM value, position E10 [18]: 0

TLNPNAKEFNPRSFSQ T1G (GLNPNAKEFNPRSFSQ)
DMS-derived PSSM value, position T1 [14]: 0.1015
